Measurements published in patent publication US20230028658A1, “EXPANDED DOSAGE REGIMENS FOR INTEGRIN INHIBITORS” (Pliant Therapeutics, Inc., priority 2021, published 2023).

Test system: COL1A1
Assay: COL1A1 expression in precision cut lung slices (PCLS) from human IPF lung tissue (FIG. 6E)
Format: cell-based
Details: concentrations ranging from 200 pM to 1 μM, versus 0.1% DMSO control
Experimental: FIG. 6D is a bar graph showing relative expression of COL1A1 in precision cut lung slices (PCLS) from idiopathic pulmonary fibrosis (IPF) lung tissue upon exposure to Compound 5, clinical standard of care compounds nintedanib (Nin) and pirfenidone (Pirf), and an ALK5 inhibitor, all versus DMSO control.
COL1A1 expression is also graphed for the PCLS in the presence of 0.1% DMSO control, and an Alk5 inhibitor at 1 μM.

In the case of `COCCN(CCCCc1ccc2c(n1)NCCC2)CC[C@H](Nc1ncnc2ccccc12)C(=O)O` [Compound 5, (S)-4-((2-methoxyethyl) (4-(5,6,7,8-tetrahydro-1,8-naphthyridin-2-yl)butyl)amino)-2-(quinazolin-4-ylamino) butanoic acid], the “COL1A1 expression in PCLS from human IPF lung tissue” value is reported as “dose dependent reduction”.
